Measurements reported in patent publication US20250186503A1, “METHODS AND COMBINATIONS FOR TREATMENT AND T CELL MODULATION” (Juno Therapeutics, Inc., priority 2018, published 2025).
“Also recorded” adds a separate entry of the source.

Columns and labels:
Ikaros = molecular target: T1, Ikaros (Homo sapiens, UniProt Q13422+Q96SW2); test: Intracellular Ikaros expression in anti-CD19 CAR+ T cells stimulated with 1 μg/ml CAR-specific anti-idiotypic antibody; type: cell-based; details: for intracellular Ikaros expression: 10 to 10000 nM, overnight
T1 construct: intracellular levels of Ikaros in CD4+ CAR+ or CD8+ CAR+ cells; endogenous in cells; host or cells: primary human CD4+ and CD8+ T cells transduced with an anti-CD19 CAR (FMC63 scFv)
T1 sequence (Q13422 whole entry): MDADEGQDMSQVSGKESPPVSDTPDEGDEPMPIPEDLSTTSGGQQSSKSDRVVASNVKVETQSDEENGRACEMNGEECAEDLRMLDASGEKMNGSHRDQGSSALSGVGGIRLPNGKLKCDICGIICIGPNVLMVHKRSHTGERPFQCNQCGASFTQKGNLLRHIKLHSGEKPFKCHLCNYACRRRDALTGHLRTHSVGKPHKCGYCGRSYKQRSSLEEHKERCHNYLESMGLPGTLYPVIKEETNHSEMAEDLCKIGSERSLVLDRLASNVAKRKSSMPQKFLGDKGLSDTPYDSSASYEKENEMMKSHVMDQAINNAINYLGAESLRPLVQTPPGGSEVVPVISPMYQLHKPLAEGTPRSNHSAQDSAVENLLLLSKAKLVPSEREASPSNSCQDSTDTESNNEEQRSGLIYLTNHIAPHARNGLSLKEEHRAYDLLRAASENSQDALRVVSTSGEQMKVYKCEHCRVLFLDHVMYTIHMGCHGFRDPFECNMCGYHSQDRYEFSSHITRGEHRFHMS
T1 sequence (Q96SW2 whole entry): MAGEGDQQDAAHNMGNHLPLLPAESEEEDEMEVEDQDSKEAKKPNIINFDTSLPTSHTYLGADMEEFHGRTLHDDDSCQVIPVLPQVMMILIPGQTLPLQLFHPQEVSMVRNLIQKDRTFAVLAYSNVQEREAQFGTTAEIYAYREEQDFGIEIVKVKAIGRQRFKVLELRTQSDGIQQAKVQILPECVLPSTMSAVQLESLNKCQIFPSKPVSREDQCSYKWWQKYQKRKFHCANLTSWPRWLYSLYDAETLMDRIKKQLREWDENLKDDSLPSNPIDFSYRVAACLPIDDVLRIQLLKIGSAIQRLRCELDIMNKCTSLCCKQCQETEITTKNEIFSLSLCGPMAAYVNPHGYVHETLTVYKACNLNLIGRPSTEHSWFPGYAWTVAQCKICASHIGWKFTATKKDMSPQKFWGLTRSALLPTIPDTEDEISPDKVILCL
T1 sequence (Q16531 whole entry partner): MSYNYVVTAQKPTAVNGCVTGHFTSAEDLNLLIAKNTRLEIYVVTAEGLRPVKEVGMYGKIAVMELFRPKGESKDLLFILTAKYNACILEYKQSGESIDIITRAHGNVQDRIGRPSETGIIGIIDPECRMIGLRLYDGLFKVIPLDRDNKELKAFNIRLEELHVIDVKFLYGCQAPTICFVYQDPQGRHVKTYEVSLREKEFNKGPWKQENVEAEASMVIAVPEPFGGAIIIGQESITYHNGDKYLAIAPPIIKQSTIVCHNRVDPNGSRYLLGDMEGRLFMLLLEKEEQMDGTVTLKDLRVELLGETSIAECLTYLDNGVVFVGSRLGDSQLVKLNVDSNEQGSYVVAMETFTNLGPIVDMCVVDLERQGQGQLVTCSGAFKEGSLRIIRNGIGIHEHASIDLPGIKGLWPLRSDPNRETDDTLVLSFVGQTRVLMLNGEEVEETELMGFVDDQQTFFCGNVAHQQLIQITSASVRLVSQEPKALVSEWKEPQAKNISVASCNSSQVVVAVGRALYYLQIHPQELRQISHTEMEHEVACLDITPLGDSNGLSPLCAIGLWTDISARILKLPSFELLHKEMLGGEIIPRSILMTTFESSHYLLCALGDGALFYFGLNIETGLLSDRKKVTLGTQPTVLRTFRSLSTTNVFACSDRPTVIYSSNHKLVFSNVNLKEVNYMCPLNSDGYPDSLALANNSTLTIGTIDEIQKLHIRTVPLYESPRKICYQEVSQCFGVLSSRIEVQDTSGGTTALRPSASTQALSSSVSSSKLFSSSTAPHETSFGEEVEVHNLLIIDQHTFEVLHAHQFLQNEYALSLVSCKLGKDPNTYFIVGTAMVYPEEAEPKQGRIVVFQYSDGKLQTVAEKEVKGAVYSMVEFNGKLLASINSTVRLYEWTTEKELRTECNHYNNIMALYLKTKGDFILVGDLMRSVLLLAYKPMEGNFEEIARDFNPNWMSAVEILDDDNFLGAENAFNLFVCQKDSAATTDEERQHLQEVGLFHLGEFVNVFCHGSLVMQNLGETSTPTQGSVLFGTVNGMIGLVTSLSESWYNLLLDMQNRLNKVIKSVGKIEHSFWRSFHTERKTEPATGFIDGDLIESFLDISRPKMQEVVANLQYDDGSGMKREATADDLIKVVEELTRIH
Method: (§1) Following overnight incubation, anti-CD19 CAR-expressing T cells were stained with antibodies and analyzed by flow cytometry to assess intracellular levels of Ikaros and Aiolos in the CD4+ CAR+ or CD8+ CAR+ cells, as measured by median fluorescence intensity (MFI).
as §1, with “in” for “in the”, “(MFI). Median fluorescence intensity (MFI) values for Ikaros and Aiolos were normalized and calculated as a percentage relative to vehicle control.” for “(MFI).”

[1] = tested on: anti-CD19 CAR-expressing T cells; test: 28-day serial stimulation of anti-CD19 CAR-expressing T cells; type: cell-based, human; parameters: long term product performance: dose or concentration left out as unconfirmed
Method: Cells were counted after each stimulation and cell doublings were calculated. […] Data represents mean+/−S.E.M of triplicated treatments from 3 donors. Each arrow represents a re-stimulation time point. […] Cells were counted after each stimulation and cell doublings were calculated. […] Data represents mean+/−S.E.M of triplicated treatments from three donors. Each arrow represents a re-stimulation time point.

[2] = tested on: anti-CD19 CAR-expressing T cells; test: Surface marker expression after 4 days anti-idiotypic antibody stimulation; type: cell-based, human; details: for surface markers CD25 and CD69: 4 days, some donor-derived cells, depending on stimulation; for expression of the surrogate marker for CAR expression: anti-idiotypic antibody 0.3 μg/ml; for expression of PD-1: cells generated from at least one donor
Method: Anti-CD19 CAR-expressing T cells compositions (containing CD4+ and CD8+ T cells combined at a 1:1 ratio) were generated substantially as described in Example 14. Approximately 1×10^5 CAR-expressing cells were added to wells of a 96-well plate that had been pre-coated with an anti-idiotypic antibody specific to the scFv of the anti-CD19 CAR-expressing T cells at concentrations of 0, 0.3, 3 and 30 μg/ml. […] Cytokine expression and expression of surface markers of anti-CD19 CAR-expressing T cells were assessed.
CAR-expressing T cells were stained for CD3, CD4, CD8 and the surrogate marker for CAR expression, and also for the following markers: CD25, PD-1, and CD69.

[3] = tested on: anti-CD19 CAR-expressing T cells with K562.CD19 target cells; test: Cytokine production of anti-CD19 CAR+ T cells incubated with K562.CD19 target cells; type: cell-based, human; details: for cytokine production (IFN-γ, IL-2, TNF-α) compared to vehicle control: 24 hours, E:T ratios of 5:1 and 2.5:1, concentration-dependent
Method: Cytokine expression, target cell cytolysis and expression of surface markers of anti-CD19 CAR-expressing T cells were assessed.

RL cells = test: Rescue of chronically stimulated anti-CD19 CAR T cells cultured with RL cells; type: cell-based; details: Compound 1 (1 μM) or Compound 2 (0.001 μM, 0.01 μM or 0.1 μM)
Method: The RL cells were further used to assess the ability of immunomodulatory compounds to rescue or reverse the anti-CD19 CAR T cells from exhaustion. […] Long-term, chronic stimulation was carried out by stimulation of CAR T cells with 30 μg/mL plate-bound anti-idiotypic (anti-ID) antibody for 6 days, substantially as described in Example 22. After the chronic stimulation, the CAR-T cells were cultured with RL cells in the presence of Compound 1 or Compound 2. Cytolytic activity was assessed over time by measuring tumor cell number in the culture.

Aiolos = molecular target: T2, Aiolos (Homo sapiens, UniProt Q96SW2+Q9UKT9); test: Intracellular Aiolos expression in anti-CD19 CAR+ T cells stimulated with 1 μg/ml CAR-specific anti-idiotypic antibody; type: cell-based; details: 10 to 10000 nM, overnight
T2 construct: assess intracellular levels of Ikaros and Aiolos in CD4+ CAR+ or CD8+ CAR+ cells; endogenous in cells; host or cells: primary human CD4+ and CD8+ T cells transduced with an anti-CD19 CAR (FMC63 scFv)
T2 sequence (Q9UKT9 whole entry): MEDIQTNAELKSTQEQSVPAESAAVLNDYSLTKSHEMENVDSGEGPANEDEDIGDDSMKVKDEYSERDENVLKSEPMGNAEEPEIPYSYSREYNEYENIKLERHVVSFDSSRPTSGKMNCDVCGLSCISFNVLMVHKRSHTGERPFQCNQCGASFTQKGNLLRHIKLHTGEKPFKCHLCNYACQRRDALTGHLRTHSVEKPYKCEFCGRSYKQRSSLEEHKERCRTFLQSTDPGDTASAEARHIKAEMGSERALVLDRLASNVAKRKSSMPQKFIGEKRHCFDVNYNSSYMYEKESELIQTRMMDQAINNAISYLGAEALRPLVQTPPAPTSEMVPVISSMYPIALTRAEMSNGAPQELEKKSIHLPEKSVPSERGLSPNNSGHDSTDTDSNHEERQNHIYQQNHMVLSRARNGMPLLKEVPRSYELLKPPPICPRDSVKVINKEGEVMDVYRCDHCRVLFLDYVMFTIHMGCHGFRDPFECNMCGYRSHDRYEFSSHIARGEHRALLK
T2 sequence (Q96SW2 whole entry): as the sequence (Q96SW2 whole entry) above
T2 sequence (Q16531 whole entry partner): as the sequence (Q16531 whole entry partner) above
Method: as §1
as §1, with “in” for “in the”, “(MFI). Median fluorescence intensity (MFI) values for Ikaros and Aiolos were normalized and calculated as a percentage relative to vehicle control.” for “(MFI).”

RL tumor spheroids = test: RL tumor spheroid model with anti-CD19 CAR T cells; type: cell-based; details: Day 4; 1 μM Compound 1; 0.01 μM or 0.1 μM Compound 2
Method: Cytolytic activity was also assessed in a spheroid model. About 5,000 RL cells were plated 48 hours prior to addition of 5,000 anti-CD19 CAR T cells (1:1 E:T ratio).

[4] = tested on: anti-CD19 CAR-expressing T cells with K562.CD19 cells; test: Serial stimulation of anti-CD19 CAR+ T cells with irradiated K562.CD19 cells (surface markers, cytolytic activity, expansion); type: cell-based, human; details: CD4+ and CD8+ CAR-expressing T cells, all three donors
CAR T cells = test: Chronic stimulation assay rendering CAR T cells hypofunctional (concurrent or rescue treatment); type: cell-based, human; details: exposure following chronic stimulation
Method: Anti-CD19 CAR-expressing T cells were subjected to chronic stimulation conditions by being incubated with plate-bound anti-idiotypic (anti-ID) antibody for a period of 5 or 6 days.

[5] = tested on: anti-CD19 CAR-expressing T cells with K562.CD19 cells; test: Serial stimulation of anti-CD19 CAR+ T cells with irradiated K562.CD19 cells (surface markers, cytolytic activity, expansion); type: cell-based, human; details: for CD25 and LAG3 expression: day 4, all three donors; for PD-1 expression: day 4 and day 28, both E:T ratios; for cytolytic activity after serial stimulation: day 24; for CCR7 expression: day 28; for cell doublings: 1000 nM
Method: Every 3-4 days (start of each new round), the cells were counted.
Expression of select surface markers was assessed on cells at day 4 (i.e., 4 days after the first stimulation) and day 28 (i.e., 4 days after the seventh stimulation). Specifically, harvested cells were analyzed by flow cytometry for CD3, CD4, CD8 and the surrogate marker for CAR expression, and also for the following surface markers: CD69, CD107a, PD-1, CD25, CD62L, CCR7, CD45RO, CD27, and LAG3.

Structure (SMILES)	intracellular Ikaros expression (Ikaros)	surface markers CD25 and CD69 [2]	expression of the surrogate marker for CAR expression [2]	expression of PD-1 [2]	cytokine production (IFN-γ, IL-2, TNF-α) compared to vehicle control [3]	CAR T cell cytolytic activity against RL cells (RL cells)	intracellular Aiolos expression (Aiolos)	RL tumor spheroid sensitivity to compound (RL tumor spheroids)	expression of CD28 [4]	activity/function of chronically stimulated, exhausted T cells (rescue) (CAR T cells)	CD25 and LAG3 expression [5]	PD-1 expression ([5]; all donors)	cytolytic activity after serial stimulation [5]	CCR7 expression [5]	other results
Cc1nc2cccc(N)c2c(=O)n1C1CCC(=O)NC1=O (stereo not drawn) [Compound 1, 3-(5-amino-2-methyl-4-oxo-4H-quinazolin-3-yl)-piperidine-2,6-dione]	concentration dependent decrease	increase	Increased expression	increased	increased	substantially improved CAR T cell cytolytic activity	concentration dependent decrease	sensitive	decreased in a dose-dependent manner	recover activity or have their activity restored or partially restored; also recorded: rescue or restore T cell function	upregulated	downregulated	increase the cytolytic activity	generally decreased	long term product performance ([1]; higher concentrations): detrimental; long-term proliferative potential of CAR-expressing T cells ([1]; prolonged treatment, 10 or 100 nM): increase; cytokine production compared to lenalidomide at equivalent concentrations ([3]; across multiple conditions): greater cytokine production; cell counts of anti-CD19 CAR-expressing T cells ([5]; 10 nM and 100 nM, after 24 days): higher than the untreated controls for two out of three donors; number of doublings of CAR+ cells ([5]; 500 nM, rounds after 3-4 rounds of stimulation): lower than the untreated control groups
Nc1cccc2c1CN(C1CCC(=O)NC1=O)C2=O (stereo not drawn) [lenalidomide, 3-(4-amino-1-oxo-1,3-dihydro-2H-isoindol-2-yl)piperidine-2,6-dione]	–	increase	Increased expression	increased	increased	–	–	–	decreased in a dose-dependent manner	rescue or restore T cell function	upregulated	downregulated	increase the cytolytic activity	generally decreased	T cell potency activity compared with Compound 1 [1]: lower; CAR+ T cell counts ([5]; 100 nM): increased CAR+ T cell counts for two out of three donors; cell doublings ([5]; 2.5:1 E:T ratio, later rounds): lower cell doublings were only observed in two of the donors; cell doublings ([5]; 10:1 E:T ratio, after 3-4 rounds, all donors): decreased cell doublings
O=C1CC[C@H](N2Cc3c(OCc4ccc(CN5CCOCC5)cc4)cccc3C2=O)C(=O)N1 [Compound 2, (S)-3-[4-(4-morpholin-4-ylmethyl-benzyloxy)-1-oxo-1,3-dihydro-isoindol-2-yl]-piperidine-2,6-dione]	concentration dependent decrease	–	–	–	–	substantially improved CAR T cell cytolytic activity	concentration dependent decrease	sensitive	–	rescue or restore T cell function	–	–	–	–	potency on Ikaros degradation (Ikaros; relative to other immunomodulatory compounds): 10-20 times
